As usually defined, the melting point is the temperature, or range, at which the solid turns liquid. For orientation: IC50 means the concentration at which inhibition is half-maximal. A low value points to greater potency.

The record followed here is article PMC9490060, “Synthesis and evaluation of anticancer activity of quillaic acid derivatives: A cell cycle arrest and apoptosis inducer through NF-κB and MAPK pathways” (Frontiers in Chemistry, 2022).

Structures are written as SMILES.

One data set has as its system JNK. In words: Western blot, MAPK signaling pathway: JNK. It is filed as cell-based, human. The settings on record: HCT116, 10 μM, 24 h. The text has this: Extracellular signal-regulated kinases are the most closely related MAPK. MAPK, a family of serine/threonine protein kinases, is also an important transmitter of signaling from the cell surface to the nucleus, and it is involved in the regulation of many physiological processes, including apoptosis ([Bian et al., 2021]). The MAPK pathway has been implicated in regulating tumor angiogenesis, proliferation, metastasis and invasion ([Ko et al., 2017]). MAPK family is mainly composed of ERK, p38 and JNK subfamily.
FIGURE 9 Effect of compound E on […] in HCT116 cells. Cells were pretreated with the various concentrations of compound E (2.5, 5 and 10 μM) for 24 h. The expression of phospho-ERK, ERK, phospho-JNK, JNK, phospho-p38, p38 were analyzed by Western blot. ***p < 0.001, **p < 0.01, *p < 0.05 vs. control group. The error bars represent the mean ± SD for three independent experiments.
(§1) HCT116 cells were cultured with different concentrations of compound E for 24 h. Then, the floating cells were collected and washed twice with ice-cold PBS. Add cold RIPA buffer. After the cells were lysed on ice for 20 min, the lysate was centrifuged at 12,000 rpm for 15 min at 4°C. The BCA method determines the protein concentration. […] The protein is detected by electrochemiluminescence (Bio-Rad, CA, United State).
For orientation: A western blot detects proteins with antibodies after separation by electrophoresis.

Data set [1] deals with L02 (human normal liver cells). Briefly: Cytotoxicity against normal cell line L02. It counts as cell-based. The text has this:
The lack of selectivity between normal and cancer cells is one of the main limitations of antitumor drugs ([Dy and Adjei, 2013]). Therefore, we evaluated the cytotoxicity of compounds B2, and E in normal cell lines L02 (human normal liver cells) to determine the selectivity index (ratio of cytotoxicity in L02 cells compared to that in cancer cells). […] Therefore, this compound was chosen for further biological studies.
The propidium iodide (PI) and Annexin V-FITC apoptosis detection kit were purchased from Invitrogen (Eugene, OR, United States). 3-(4,5-Dimethylthiazol-2-yl)-2,5-diphenyl-2H-tetrazolium bromide (MTT) was purchased from Sigma-Aldrich Co. (St. Louis, MO, United States). All human cell lines were used in this study, colorectal cancer cell HCT116, colorectal cancer cell SW620, breast cancer cell MCF-7, liver hepatocellular carcinoma cell BEL7402, liver hepatocellular carcinoma HepG2 and normal liver cell L02 were initially purchased from American Type Culture Collection (ATCC, Manassas, VA, United States). RPMI-1640 media, Dulbecco’s modified Eagle’s medium (DMEM), and foetal bovine serum (FBS) were provided from Gibco Company (Grand Island, NY, United States). Cell line MCF-7 and HepG2 were cultivated in DMEM containing 10% (v/v) heat-inactivated FBS, 100 units/ml penicillin and […] streptomycin (Grand Island, NY, United States). Cell lines HCT116, BEL7402, SW620, and L02 were cultivated in RPMI 1640 medium containing 10% (v/v) heat-inactivated FBS, 100 units/ml penicillin, and […] streptomycin. The cells were incubated at 37°C under a 5% CO2 and 90% relative humidity (RH) atmosphere.
Stock solutions were prepared by diluting target compounds in DMSO at concentrations (1.25, 2.5, 5, and 10 mM). The stock solution was then diluted (1.25, 2.5, 5, and 10 μM) with culture medium, and the concentration of DMSO was controlled not to exceed 0.1%.
Place the cells in a 96-well plate at an appropriate density to ensure exponential growth (1 × 10^4–1.2×10^4 cells per well) throughout the experiment, and then allow the cells to adhere for 24 h. The cells were then treated with continuous concentrations of each compound (1.25, 2.5, 5, and 10 μM) for 48 h. After 48 h of incubation, 15 μl of MTT solution was added to each well, and the final concentration was 2 mg/ml. Then incubate for another 4 h. After incubation, remove the MTT solution and add […] of DMSO to each well for staining. Shake vigorously for 10 min at room temperature to ensure complete dissolution. The optical density (OD) was read on a microplate reader (ELx 800, BioTek, Highland Park, Winooski, VT, United States) with a wavelength of 492 nm, and then the data was analyzed.

For the next data set, the system named is NF-κB p65. In words: Western blot, NF-κB signaling pathway: NF-κB p65. It counts as cell-based, human. The settings on record: HCT116, 2.5, 5 and 10 μM, 24 h.
Excerpt: The NF-κB pathway plays an important role in a variety of cellular functions, including cell growth, apoptosis, and tumorigenesis ([Hwang et al., 2012]). Interfering with NF-κB signaling can inhibit tumor cell proliferation and metastasis ([Yenmis et al., 2021]). Therefore, NF-κB inhibitors are considered as potential anticancer drugs ([Wang et al., 2017]).
FIGURE 8 Effect of compound E on NF-κB signaling pathway in HCT116 cells. Cells were pretreated with the various concentrations of compound E (2.5, 5 and 10 μM) for 24 h. The expression of phospho-NF-κB p65, NF-κB p65, phospho-IκB, IκB were analyzed by Western blot. ***p < 0.001, **p < 0.01, *p < 0.05 vs. control group. The error bars represent the mean ± SD for three independent experiments.
as §1, with “concentration. Separated by SDS/PAGE electrophoresis and transferred to a nitrocellulose filter membrane for Western blot analysis. The membrane was blocked with PBS containing 5% skim milk at room temperature for 2 h.” for “concentration.”

Data set [2] concerns HepG2 (human hepatocellular carcinoma cell line). In words: MTT anti-proliferative assay, HepG2. It counts as cell-based. The settings on record: means ± SD, n = 3. The method, boiled down:
(§2)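 Cells seeded at 1 × 10^4–1.2 × 10^4 per well were allowed to adhere 24 h, then exposed 48 h at 37 °C, 5% CO2 to compound at 1.25, 2.5, 5 and 10 μM (DMSO ≤0.1%). MCF-7 and HepG2 were grown in DMEM, HCT116 and BEL7402 in RPMI 1640, each with 10% FBS. MTT (final 2 mg/ml) was added for 4 h; formazan was dissolved in DMSO and read at 492 nm.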

In data set [3] the test system is MCF-7 (human breast cancer cell line). In words: MTT anti-proliferative assay, MCF-7. It counts as cell-based. The settings on record: means ± SD, n = 3. The method, boiled down: as §2
On the technique in general: Formazan colour is commonly taken as a measure of viable cells.

For data set [4], the system named is HCT116 (human colorectal cancer cell line). In words: MTT anti-proliferative assay, HCT116. The settings on record: means ± SD, n = 3. It counts as cell-based. A digest of the protocol:
as §2

For data set [5], the system named is SW620 (human colorectal cancer cell line). Briefly: MTT anti-proliferative assay, SW620. It counts as cell-based. The settings on record: means ± SD, n = 3.

On to `CC1(C)CC[C@]2(C(=O)OCCn3nnnc3-c3ccccc3)[C@H](O)C[C@]3(C)C(=CC[C@@H]4[C@@]5(C)CC[C@H](O)[C@@](C)(C=O)[C@@H]5CC[C@]43C)[C@@H]2C1` [Compound E, 2-(5-phenyl-1H-tetrazol-1-yl)ethyl (4aR,5R,6aS,6bR,8aR,9S,10S,12aR,12bR,14bS)-9-formyl-5,10-dihydroxy-2,2,6a,6b,9,12a-hexamethyl-1,3,4,5,6,6a,6b,7,8,8a,9,10,11,12,12a,12b,13,14b-octadecahydropicene-4a (2H)-carboxylate], for which the melting point was in the range of 196 to 198 °C. For the same compound, the “phosphorylation level of JNK” value in the data set on JNK is given as “down-regulated”. In addition, the IC50 in data set [1] (Homo sapiens, normal cell line L02) was greater than 10 µM. Besides, the “Selectivity index BEL7402” value in data set [1] (IC50 on normal cells (L02)/IC50 on tumour cells (BEL7402)) is greater than 1.45. Further, the “Selectivity index HCT116” value in data set [1] (IC50 on normal cells (L02)/IC50 on tumour cells (HCT116)) was greater than 4.06. Besides, in data set [1] (IC50 on normal cells (L02)/IC50 on tumour cells (HepG2)), the “Selectivity index HepG2” value is given as greater than 1.12. For the same compound, the “Selectivity index SW620” value in data set [1] (IC50 on normal cells (L02)/IC50 on tumour cells (SW620)) is given as greater than 2.13. The “effect on NF-κB p65” value with NF-κB p65 is “no inhibitory effect”. In addition, the “IC50 values HepG2” value in data set [2] (48 h incubation) was “strong activity”. Besides, the midpoint of inhibition in data set [2] (Homo sapiens, HepG2, 48 h incubation), the IC50, lay at 8.89 ± 2.24 µM. The “IC50 values MCF-7” value in data set [3] (48 h incubation) is listed as “strong activity”. This compound also had an IC50 in data set [3] (Homo sapiens, MCF7, 48 h incubation) of 7.59 ± 1.78 µM. In addition, in data set [4] (48 h incubation), the “IC50 values HCT116” value was “strong activity”. In data set [4] (Homo sapiens, HCT-116, 48 h incubation), the IC50 turned out to be 2460 ± 440 nM. The “IC50 values SW620” value in data set [5] (48 h incubation) was “strong activity”. Also, inhibition in data set [5] (Homo sapiens, SW-620, 48 h incubation) was half-maximal at 4.69 ± 1.1 µM (IC50).
